EPA's ToxValDB 9.5 (doi:10.2903/j.efsa.2011.1958)
In brackets after ≈: the same amount, converted by molar mass. Several values for one entry are separate records, joined by “and”; a condition that tells them apart may be missing. Equal values may be shown once.

Key:
Colinus virginianus = settings: acute, oral, mortality
Apis mellifera = settings: acute; duration: 48 hours; oral; unspecified; mortality
Landoltia sp. = settings: acute; duration: 14 days; growth
Pimephales promelas = settings: chronic/long-term; duration: 28 days; growth
Tagia sp. = settings: acute; duration: 14 days; mortality
Daphnia magna = settings: chronic/long-term; duration: 21 days; reproduction
Anas platyrhynchos = settings: acute; oral; unspecified; mortality
Oncorhynchus mykiss = settings: acute; duration: 96 hours; mortality
Aphidius rhopalosiphi = assay: LR50; higher = less toxic; settings: acute; duration: 7 days; reproduction
Typhlodromus pyri = assay: LR50; higher = less toxic; settings: acute; duration: 48 hours; reproduction

Structure (SMILES): CN(C)C(=O)Nc1cccc(C(F)(F)F)c1 [Fluometuron]
- LC50 (Colinus virginianus; diet): > 1600 mg/kg and 4310 mg/kg
- LD50 (Colinus virginianus): > 2150 mg/kg
- LD50 (Apis mellifera): > 34 µg/piece
- NOEC (Landoltia sp.): 0.185 mg/L
- LD50 (Rattus norvegicus; acute, oral, mortality): > 5000 mg/kg
- NOAEL (Rattus norvegicus; chronic, duration: 104 weeks, hematological): 0.553 mg/kg-day
- NOEL (Rattus norvegicus; developmental, development): 24 mg/kg-day
- NOAEL (Rattus norvegicus; reproduction developmental, other): 0.8 mg/kg-day
- NOEC (Pimephales promelas): 3.1 mg/L
- LC50 (Tagia sp.): 1000 mg/kg
- NOEC (Daphnia magna): 6.6 mg/L
- LD50 (Anas platyrhynchos): 2970 mg/kg
- LC50 (Oncorhynchus mykiss): 30 µg/mL (≈ 129 µM)
- LR50 (Aphidius rhopalosiphi): 398 g/ha
- LR50 (Typhlodromus pyri): 28.9 g/ha
